Measured values published in ChEMBL document CHEMBL5715260, “Selectivity Literature for EUbOPEN Chemogenomic Library” (2024).
One block for each molecule: values may come before it. Where a SMILES comes first, the peptide text is derived from it. [ ]: non-standard residue; d: D form. The star is where a group is joined. Benzoyl(4-OPh) = O=C(c1ccc(Oc2ccccc2)cc1)*; Lys(Et2) = CCN(CC)CCCC[C@H](N)C(=O)O; d(aIle) = CC[C@H](C)[C@@H](N)C(=O)O; Gly(cPent) = N[C@H](C(=O)O)C1CCCC1; NH(propargyl) = C#CCN*

Tests used:
Histone deacetylase 8 [1] = target: T1, Histone deacetylase 8 (Homo sapiens, UniProt Q9BY41)
T1 sequence (Q9BY41 whole entry): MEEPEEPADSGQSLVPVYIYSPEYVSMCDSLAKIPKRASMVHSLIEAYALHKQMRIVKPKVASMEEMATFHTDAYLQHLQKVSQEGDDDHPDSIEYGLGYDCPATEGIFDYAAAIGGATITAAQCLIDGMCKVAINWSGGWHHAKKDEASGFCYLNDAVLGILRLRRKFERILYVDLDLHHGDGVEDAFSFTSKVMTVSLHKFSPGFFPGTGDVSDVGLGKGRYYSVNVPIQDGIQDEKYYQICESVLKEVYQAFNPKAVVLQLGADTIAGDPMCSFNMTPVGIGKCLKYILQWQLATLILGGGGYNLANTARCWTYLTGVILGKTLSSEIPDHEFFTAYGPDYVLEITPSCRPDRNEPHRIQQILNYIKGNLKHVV

Histone deacetylase 8 [2] = target: T1, Histone deacetylase 8; remark: listed apart in the source
Histone deacetylase 8 [3] = target: T1, Histone deacetylase 8; remark: listed apart in the source
[4] = target: Bromodomain adjacent to zinc finger domain protein 2A (Homo sapiens, UniProt Q9UIF9); test: Selectivity interaction (BROMOscan (Eurofins)) EUB0002282a BAZ2A; parameters: recommended concentration 1 uM
[5] = target: Bromodomain adjacent to zinc finger domain protein 2B (Homo sapiens, UniProt Q9UIF8); test: Selectivity interaction (BROMOscan (Eurofins)) EUB0002282a BAZ2B; parameters: recommended concentration 1 uM
Peregrin = Peregrin (Homo sapiens, UniProt P55201); test: Selectivity interaction (BROMOscan (Eurofins)) EUB0002282a BRPF1; parameters: recommended concentration 1 uM
[6] = target: Transcription initiation factor TFIID subunit 1 (Homo sapiens, UniProt P21675); test: Selectivity interaction (BROMOscan (Eurofins)) EUB0002282a TAF1; parameters: recommended concentration 1 uM
[7] = target: T2, Bromodomain-containing protein 9 (Homo sapiens, UniProt Q9H8M2); test: Selectivity interaction (BROMOscan (Eurofins)) EUB0002282a BRD9; parameters: recommended concentration 1 uM
T2 sequence (Q9H8M2 whole entry): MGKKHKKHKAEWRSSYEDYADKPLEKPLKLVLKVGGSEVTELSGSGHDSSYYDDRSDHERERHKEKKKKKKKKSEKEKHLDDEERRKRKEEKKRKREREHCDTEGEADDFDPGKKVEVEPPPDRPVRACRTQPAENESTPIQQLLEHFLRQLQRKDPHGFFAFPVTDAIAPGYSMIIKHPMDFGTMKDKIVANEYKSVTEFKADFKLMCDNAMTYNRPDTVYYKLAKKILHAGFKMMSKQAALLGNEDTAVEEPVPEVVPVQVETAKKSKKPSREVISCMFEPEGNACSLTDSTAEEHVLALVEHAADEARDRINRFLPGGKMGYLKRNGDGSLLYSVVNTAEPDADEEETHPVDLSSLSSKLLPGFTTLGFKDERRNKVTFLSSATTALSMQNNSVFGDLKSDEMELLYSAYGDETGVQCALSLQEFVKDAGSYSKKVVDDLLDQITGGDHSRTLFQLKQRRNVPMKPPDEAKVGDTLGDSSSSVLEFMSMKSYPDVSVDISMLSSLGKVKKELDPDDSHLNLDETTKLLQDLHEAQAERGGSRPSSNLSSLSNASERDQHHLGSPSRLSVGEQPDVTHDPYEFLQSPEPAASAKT

[8] = target: Bromodomain testis-specific protein (Homo sapiens, UniProt Q58F21); test: Selectivity interaction (BROMOscan (Eurofins)) EUB0002282a BRDT; parameters: recommended concentration 1 uM
[9] = target: T3, Histone acetyltransferase p300 (Homo sapiens, UniProt Q09472); test: Selectivity interaction (BROMOscan (Eurofins)) EUB0002282a EP300; parameters: recommended concentration 1 uM
T3 sequence (Q09472 whole entry): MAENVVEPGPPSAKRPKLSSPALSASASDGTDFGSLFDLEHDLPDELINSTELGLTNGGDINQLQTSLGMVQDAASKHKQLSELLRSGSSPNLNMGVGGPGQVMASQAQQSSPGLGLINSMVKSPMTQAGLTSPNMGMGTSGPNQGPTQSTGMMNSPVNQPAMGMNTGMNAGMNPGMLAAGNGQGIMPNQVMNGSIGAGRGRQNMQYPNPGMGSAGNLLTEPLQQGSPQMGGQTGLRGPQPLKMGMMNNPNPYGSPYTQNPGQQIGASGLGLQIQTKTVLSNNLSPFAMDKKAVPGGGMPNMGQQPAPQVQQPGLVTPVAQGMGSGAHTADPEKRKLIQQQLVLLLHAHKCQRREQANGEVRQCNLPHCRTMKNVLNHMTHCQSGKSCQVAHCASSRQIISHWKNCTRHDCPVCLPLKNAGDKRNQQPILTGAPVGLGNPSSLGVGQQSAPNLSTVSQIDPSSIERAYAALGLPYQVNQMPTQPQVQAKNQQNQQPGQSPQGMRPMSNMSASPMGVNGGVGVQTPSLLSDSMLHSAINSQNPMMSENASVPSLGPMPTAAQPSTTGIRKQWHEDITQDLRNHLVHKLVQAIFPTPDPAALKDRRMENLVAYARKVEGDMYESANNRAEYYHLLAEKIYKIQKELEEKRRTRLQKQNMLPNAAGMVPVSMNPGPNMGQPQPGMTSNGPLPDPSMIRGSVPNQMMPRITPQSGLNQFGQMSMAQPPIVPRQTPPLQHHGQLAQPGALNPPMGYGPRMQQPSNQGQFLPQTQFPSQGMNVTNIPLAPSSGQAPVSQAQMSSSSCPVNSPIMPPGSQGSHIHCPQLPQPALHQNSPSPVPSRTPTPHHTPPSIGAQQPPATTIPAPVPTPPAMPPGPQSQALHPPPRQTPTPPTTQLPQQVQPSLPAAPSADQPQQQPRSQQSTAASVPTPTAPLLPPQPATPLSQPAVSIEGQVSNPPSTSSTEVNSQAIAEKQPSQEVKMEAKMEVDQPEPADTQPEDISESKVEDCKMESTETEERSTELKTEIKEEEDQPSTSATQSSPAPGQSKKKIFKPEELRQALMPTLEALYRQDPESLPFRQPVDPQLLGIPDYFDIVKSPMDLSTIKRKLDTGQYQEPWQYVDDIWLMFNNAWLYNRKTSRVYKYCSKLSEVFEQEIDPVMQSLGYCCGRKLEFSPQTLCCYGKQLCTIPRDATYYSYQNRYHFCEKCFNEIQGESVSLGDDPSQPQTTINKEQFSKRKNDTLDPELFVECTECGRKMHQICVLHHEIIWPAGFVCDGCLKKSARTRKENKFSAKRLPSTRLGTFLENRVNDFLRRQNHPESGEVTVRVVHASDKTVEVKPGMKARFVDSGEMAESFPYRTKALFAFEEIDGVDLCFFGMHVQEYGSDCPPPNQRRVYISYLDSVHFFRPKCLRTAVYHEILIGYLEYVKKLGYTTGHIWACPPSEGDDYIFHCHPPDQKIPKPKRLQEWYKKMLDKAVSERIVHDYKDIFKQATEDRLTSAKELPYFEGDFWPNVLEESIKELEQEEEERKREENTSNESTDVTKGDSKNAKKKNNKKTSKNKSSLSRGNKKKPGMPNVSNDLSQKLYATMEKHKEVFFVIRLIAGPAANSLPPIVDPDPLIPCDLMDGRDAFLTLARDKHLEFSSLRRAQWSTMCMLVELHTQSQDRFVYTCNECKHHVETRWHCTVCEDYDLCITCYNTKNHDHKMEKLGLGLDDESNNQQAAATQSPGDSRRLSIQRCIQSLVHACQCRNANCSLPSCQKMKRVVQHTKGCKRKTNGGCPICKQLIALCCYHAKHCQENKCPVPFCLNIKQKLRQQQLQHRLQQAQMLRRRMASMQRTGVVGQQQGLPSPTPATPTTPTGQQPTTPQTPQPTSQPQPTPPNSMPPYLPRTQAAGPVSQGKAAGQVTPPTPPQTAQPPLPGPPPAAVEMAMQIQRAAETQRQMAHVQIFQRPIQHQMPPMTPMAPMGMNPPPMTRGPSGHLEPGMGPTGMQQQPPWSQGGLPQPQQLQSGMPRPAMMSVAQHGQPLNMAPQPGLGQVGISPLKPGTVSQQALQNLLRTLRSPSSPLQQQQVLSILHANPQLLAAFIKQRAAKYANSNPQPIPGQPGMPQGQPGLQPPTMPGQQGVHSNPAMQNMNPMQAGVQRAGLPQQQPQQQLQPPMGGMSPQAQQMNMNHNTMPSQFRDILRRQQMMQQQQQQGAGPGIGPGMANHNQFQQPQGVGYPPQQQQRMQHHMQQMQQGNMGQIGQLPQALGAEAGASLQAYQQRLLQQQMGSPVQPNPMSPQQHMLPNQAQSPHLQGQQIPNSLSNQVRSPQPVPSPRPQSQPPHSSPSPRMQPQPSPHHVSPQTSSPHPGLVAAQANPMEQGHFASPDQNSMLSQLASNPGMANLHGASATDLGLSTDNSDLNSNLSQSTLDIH

CREB-binding protein = CREB-binding protein (Homo sapiens, UniProt Q92793); test: Selectivity interaction (BROMOscan (Eurofins)) EUB0002282a CREBBP; parameters: recommended concentration 1 uM
[10] = target: Chromatin remodeling regulator CECR2 (Homo sapiens, UniProt Q9BXF3); test: Selectivity interaction (BROMOscan (Eurofins)) EUB0002282a CECR2; parameters: recommended concentration 1 uM
[11] = target: T4, Chromobox protein homolog 2 (Homo sapiens, UniProt Q14781); test: (§1) Selectivity interaction (Fluorescence polarisation assay (chromodomain family)) EUB0002326a CBX2; parameters: recommended concentration 1 uM
T4 sequence (Q14781 whole entry): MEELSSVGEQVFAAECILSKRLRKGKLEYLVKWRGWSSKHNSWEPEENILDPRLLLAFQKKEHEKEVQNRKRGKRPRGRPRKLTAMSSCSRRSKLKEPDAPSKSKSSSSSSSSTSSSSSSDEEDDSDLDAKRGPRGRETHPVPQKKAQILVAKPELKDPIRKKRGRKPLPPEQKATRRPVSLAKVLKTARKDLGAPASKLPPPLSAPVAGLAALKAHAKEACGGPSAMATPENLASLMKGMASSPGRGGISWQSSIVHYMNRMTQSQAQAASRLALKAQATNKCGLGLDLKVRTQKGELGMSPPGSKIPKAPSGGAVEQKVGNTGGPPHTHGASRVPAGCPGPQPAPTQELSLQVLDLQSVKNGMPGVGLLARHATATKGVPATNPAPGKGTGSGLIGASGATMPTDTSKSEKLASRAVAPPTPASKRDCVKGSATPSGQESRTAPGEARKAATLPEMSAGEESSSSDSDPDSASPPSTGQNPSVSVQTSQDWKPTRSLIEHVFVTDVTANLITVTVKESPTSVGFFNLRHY

[12] = target: T4, Chromobox protein homolog 2; test: as §1; parameters: recommended concentration 1 uM; remark: listed apart in the source
[13] = target: Chromobox protein homolog 7 (Homo sapiens, UniProt O95931); test: Selectivity interaction (Fluorescence polarisation assay (chromodomain family)) EUB0002326a CBX7; parameters: recommended concentration 1 uM
Sequence of Chromobox protein homolog 7 (O95931 whole entry): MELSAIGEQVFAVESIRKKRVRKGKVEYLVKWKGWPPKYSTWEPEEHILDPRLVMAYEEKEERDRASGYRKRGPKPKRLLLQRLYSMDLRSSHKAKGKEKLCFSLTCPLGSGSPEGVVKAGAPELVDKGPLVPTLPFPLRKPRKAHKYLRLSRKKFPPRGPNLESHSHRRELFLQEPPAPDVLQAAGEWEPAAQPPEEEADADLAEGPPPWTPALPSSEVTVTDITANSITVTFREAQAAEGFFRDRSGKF

P2X purinoceptor 3 = P2X purinoceptor 3 (Homo sapiens, UniProt P56373); test: Selectivity interaction (Patch-clamp recording assay) EUB0002673aCl P2RX3; parameters: recommended concentration 1 uM
[14] = target: T3, Histone acetyltransferase p300; test: (§2) Selectivity interaction (BROMOscan (DiscoverX)) EUB0002298a EP300; parameters: recommended concentration 1 uM
[15] = target: T3, Histone acetyltransferase p300; test: as §2; parameters: recommended concentration 1 uM; remark: listed apart in the source
[16] = target: T3, Histone acetyltransferase p300; test: as §2; parameters: recommended concentration 1 uM; remark: listed apart in the source
[17] = target: Muscarinic acetylcholine receptor M1 (Homo sapiens, UniProt P11229); test: Selectivity interaction (Membrane binding assay) EUB0002488aCl CHRM1; parameters: recommended concentration 1 uM
[18] = target: cGMP-inhibited 3',5'-cyclic phosphodiesterase 3B (Homo sapiens, UniProt Q13370); test: Selectivity interaction (Enzymatic assay) EUB0002598a PDE3B; parameters: recommended concentration 1 uM
[19] = target: T5, Delta-type opioid receptor (Homo sapiens, UniProt P41143); test: (§3) Selectivity interaction (Panel of neurotransmitter receptors, receptors, ion channels/regulatory sites) EUB0002781aCl OPRD1; parameters: recommended concentration 1 uM
T5 sequence (P41143 whole entry): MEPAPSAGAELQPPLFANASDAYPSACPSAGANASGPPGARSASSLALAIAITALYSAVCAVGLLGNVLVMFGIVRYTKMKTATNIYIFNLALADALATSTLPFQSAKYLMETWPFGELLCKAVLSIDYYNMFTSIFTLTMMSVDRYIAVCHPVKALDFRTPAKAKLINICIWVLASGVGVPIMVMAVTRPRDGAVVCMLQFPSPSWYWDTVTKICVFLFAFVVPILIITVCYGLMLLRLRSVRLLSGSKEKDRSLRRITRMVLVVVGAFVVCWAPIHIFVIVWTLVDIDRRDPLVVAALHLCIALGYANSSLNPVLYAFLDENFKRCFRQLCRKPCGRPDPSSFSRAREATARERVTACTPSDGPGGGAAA

Mu-type opioid receptor [20] = target: T6, Mu-type opioid receptor (Homo sapiens, UniProt P35372); test: (§4) Selectivity interaction (Panel of neurotransmitter receptors, receptors, ion channels/regulatory sites) EUB0002781aCl OPRM1; parameters: recommended concentration 1 uM
T6 sequence (P35372 whole entry): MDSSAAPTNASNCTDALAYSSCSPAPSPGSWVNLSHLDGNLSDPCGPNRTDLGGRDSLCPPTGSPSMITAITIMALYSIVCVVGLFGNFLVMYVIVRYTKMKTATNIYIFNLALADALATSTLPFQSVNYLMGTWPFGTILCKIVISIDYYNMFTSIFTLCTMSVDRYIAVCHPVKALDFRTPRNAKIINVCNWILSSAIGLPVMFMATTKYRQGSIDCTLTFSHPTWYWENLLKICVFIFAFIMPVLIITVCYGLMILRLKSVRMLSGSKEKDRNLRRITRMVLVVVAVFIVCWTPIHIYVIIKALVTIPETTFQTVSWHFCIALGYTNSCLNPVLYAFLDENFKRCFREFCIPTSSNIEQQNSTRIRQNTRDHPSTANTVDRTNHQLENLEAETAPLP

Mu-type opioid receptor [21] = target: T6, Mu-type opioid receptor; test: as §4; parameters: recommended concentration 1 uM; remark: listed apart in the source
[22] = target: T5, Delta-type opioid receptor; test: as §3; parameters: recommended concentration 1 uM; remark: listed apart in the source
[23] = target: Kappa-type opioid receptor (Homo sapiens, UniProt P41145); test: Selectivity interaction (Panel of neurotransmitter receptors, receptors, ion channels/regulatory sites) EUB0002781aCl OPRK1; parameters: recommended concentration 1 uM
Sequence of Kappa-type opioid receptor (P41145 whole entry): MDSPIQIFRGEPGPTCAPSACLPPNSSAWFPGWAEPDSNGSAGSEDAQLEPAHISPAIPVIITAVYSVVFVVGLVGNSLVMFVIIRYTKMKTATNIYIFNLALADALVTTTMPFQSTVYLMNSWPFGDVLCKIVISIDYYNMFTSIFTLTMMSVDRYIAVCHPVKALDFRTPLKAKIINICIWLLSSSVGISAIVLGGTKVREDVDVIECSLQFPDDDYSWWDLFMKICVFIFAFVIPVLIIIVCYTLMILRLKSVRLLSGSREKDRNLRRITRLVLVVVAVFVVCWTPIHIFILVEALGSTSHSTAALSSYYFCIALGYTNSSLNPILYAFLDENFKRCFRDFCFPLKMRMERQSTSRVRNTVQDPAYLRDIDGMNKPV

[24] = target: Voltage-dependent L-type calcium channel subunit alpha-1S (Homo sapiens) (UniProt Q13698); test: Selectivity interaction (Panel of neurotransmitter receptors, receptors, ion channels/regulatory sites) EUB0002781aCl CACNA1S; parameters: recommended concentration 1 uM; details: at 10 µM
[25] = target: Oxidized purine nucleoside triphosphate hydrolase (Homo sapiens) (UniProt P36639); test: Selectivity interaction (Nudix + Nucleotide phosphohydrolase panel (enzymatic assay)) EUB0002332a NUDT1; parameters: recommended concentration 1 uM; details: at 100 µM
[26] = target: 5-hydroxytryptamine receptor 1B (Homo sapiens) (UniProt P28222); test: (§5) Selectivity interaction (SafetyScreen (Eurofins)) EUB0002332a HTR1B; parameters: recommended concentration 1 uM; details: at 10 µM
Sequence of 5-hydroxytryptamine receptor 1B (Homo sapiens) (P28222 whole entry): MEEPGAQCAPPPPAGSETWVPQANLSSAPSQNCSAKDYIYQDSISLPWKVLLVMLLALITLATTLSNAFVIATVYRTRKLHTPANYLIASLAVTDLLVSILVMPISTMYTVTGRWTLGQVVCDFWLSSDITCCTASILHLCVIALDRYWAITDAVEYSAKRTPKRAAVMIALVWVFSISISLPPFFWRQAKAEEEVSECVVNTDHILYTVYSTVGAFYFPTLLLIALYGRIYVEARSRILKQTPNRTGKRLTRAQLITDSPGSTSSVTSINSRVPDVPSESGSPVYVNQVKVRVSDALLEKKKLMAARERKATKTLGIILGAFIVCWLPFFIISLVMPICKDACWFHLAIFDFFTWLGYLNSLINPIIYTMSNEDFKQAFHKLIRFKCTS

[27] = target: Sodium-dependent dopamine transporter (Homo sapiens) (UniProt Q01959); test: Selectivity interaction (SafetyScreen (Eurofins)) EUB0002332a SLC6A3; parameters: recommended concentration 1 uM; details: at 10 µM
Sequence of Sodium-dependent dopamine transporter (Homo sapiens) (Q01959 whole entry): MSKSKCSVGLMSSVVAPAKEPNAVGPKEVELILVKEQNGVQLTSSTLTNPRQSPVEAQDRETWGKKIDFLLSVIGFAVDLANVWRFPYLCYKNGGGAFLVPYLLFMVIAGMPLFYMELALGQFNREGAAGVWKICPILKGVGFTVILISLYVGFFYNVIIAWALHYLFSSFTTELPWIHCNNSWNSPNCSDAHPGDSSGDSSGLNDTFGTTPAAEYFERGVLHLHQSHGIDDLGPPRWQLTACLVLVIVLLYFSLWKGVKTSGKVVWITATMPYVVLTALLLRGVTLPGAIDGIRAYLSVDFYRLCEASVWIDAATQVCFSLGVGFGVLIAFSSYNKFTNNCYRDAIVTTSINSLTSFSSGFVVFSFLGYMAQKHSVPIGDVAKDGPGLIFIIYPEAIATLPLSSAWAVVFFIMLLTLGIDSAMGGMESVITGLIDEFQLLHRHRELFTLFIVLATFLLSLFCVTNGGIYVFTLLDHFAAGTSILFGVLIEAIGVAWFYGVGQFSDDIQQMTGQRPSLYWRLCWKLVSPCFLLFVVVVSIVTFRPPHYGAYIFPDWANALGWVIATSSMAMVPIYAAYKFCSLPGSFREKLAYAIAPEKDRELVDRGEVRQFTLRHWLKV

[28] = target: Sodium-dependent noradrenaline transporter (Homo sapiens) (UniProt P23975); test: Selectivity interaction (SafetyScreen (Eurofins)) EUB0002332a SLC6A2; parameters: recommended concentration 1 uM; details: at 10 µM
[29] = target: Voltage-gated inwardly rectifying potassium channel KCNH2 (Homo sapiens, UniProt Q12809); test: Selectivity interaction (SafetyScreen (Eurofins)) EUB0002332a KCNH2; parameters: recommended concentration 1 uM; details: at 10 µM
[30] = target: 5-hydroxytryptamine receptor 1B (Homo sapiens) (UniProt P28222); test: as §5; parameters: recommended concentration 1 uM; details: at 10 µM; remark: listed apart in the source
Cathepsin S = Cathepsin S (Homo sapiens, UniProt P25774); test: Selectivity interaction (Enzymatic assay) EUB0002529a CTSS; parameters: recommended concentration 1 uM

SMILES: CN(C)Cc1ccc(S(=O)(=O)n2ccc(/C=C/C(=O)NO)c2)cc1
- IC50 (Histone deacetylase 8 [1]): 0.877 µM
- IC50 (Histone deacetylase 8 [2]): 0.877 µM
- IC50 (Histone deacetylase 8 [3]): 0.877 µM

SMILES: C#CCNC(=O)[C@H](CO)NC(=O)[C@H](CCCCN(CC)CC)NC(=O)[C@H](NC(=O)[C@@H](NC(=O)c1ccc(Oc2ccccc2)cc1)C1CCCC1)[C@@H](C)CC ({Benzoyl(4-OPh)}-[Gly(cPent)][d(aIle)][Lys(Et2)]S-{NH(propargyl)})
- Kd [11]: 4.6 µM
- Kd [12]: 4.6 µM
- Kd [13]: > 16 µM

SMILES: CCCCOc1c(OC)cc(C(=O)NCC2(N(C)C)CCOCC2)cc1OC
- IC50 (P2X purinoceptor 3): 0.87 µM

SMILES: CN1[C@@H]2CC[C@H]1C[C@@H](OC(c1ccc(F)cc1)c1ccc(F)cc1)C2
- Ki [17]: 0.0116 µM

SMILES: CC(C)C(=O)c1c(C(C)C)nn2ccccc12 [IBUDILAST]
- IC50 [18]: 2.7 µM

SMILES: N=C(N)NC(=O)c1cnn(-c2cccc3ncccc23)c1C1CC1
- Ki [19]: 0.238 µM
- Ki (Mu-type opioid receptor [20]): 0.06 µM
- Ki (Mu-type opioid receptor [21]): 0.213 µM
- Ki [22]: 0.213 µM
- Ki [23]: 0.213 µM
- inhibition [24]: 62%

Second part, led by results:

- Kd [4]: 0.14 µM
- Kd [5]: 0.19 µM
- Kd (Peregrin): 0.1 µM
- Kd [6]: 0.11 µM
- Kd [7]: 0.064 µM
- Kd [8]: 0.025 µM
- Kd [9]: 0.025 µM
- Kd (CREB-binding protein): 0.023 µM
- Kd [10]: 0.038 µM
SMILES: Cc1cc(-c2ccc3nc(C4CCOCC4)n(CCOC(F)(F)F)c3c2)cn(C)c1=O

- IC50 [14]: 0.363 µM
- IC50 [15]: 0.363 µM
- IC50 [16]: 0.363 µM
SMILES: CCCOc1ccc(CCc2nc3cc(-c4c(C)noc4C)ccc3n2CCN2CCOCC2)cc1

- Enzyme activity [25]: < 20%
SMILES: Cn1c(=O)c2c(nc(N3CCNCC3)n2Cc2nnc(-c3ccc(Cl)c(Cl)c3)o2)n(C)c1=O
- Inhibition of control [26]: > 50%
- Inhibition of control [27]: 50%
- Inhibition of control [28]: > 50%
- Inhibition of control [29]: > 50%
- Inhibition of control [30]: > 50%

- Ki (Cathepsin S): 0.85 µM
SMILES: Cn1nc(C(C)(C)C)cc1C(=O)NC(Cc1cccc(Cl)c1)C(=O)NCC#N (centres undefined)
